Results taken from ChEMBL document CHEMBL4842368, “Berotralstat (BCX7353): Structure-Guided Design of a Potent, Selective, and Oral Plasma Kallikrein Inhibitor to Prevent Attacks of Hereditary Angioedema (HAE)” (J Med Chem, 2021).
Blank lines part the entries; values can stand above or below the molecule they belong to.

Assays:
[1] = target: Plasma kallikrein (Homo sapiens, UniProt P03952); assay: Inhibition of purified human plasma kallikrein using H-D-Pro-Phe-Arg-pNA.2HCl as substrate measured after 3 mins by microplate reader analysis
Chain of Plasma kallikrein (P03952 20-390 limits assumed): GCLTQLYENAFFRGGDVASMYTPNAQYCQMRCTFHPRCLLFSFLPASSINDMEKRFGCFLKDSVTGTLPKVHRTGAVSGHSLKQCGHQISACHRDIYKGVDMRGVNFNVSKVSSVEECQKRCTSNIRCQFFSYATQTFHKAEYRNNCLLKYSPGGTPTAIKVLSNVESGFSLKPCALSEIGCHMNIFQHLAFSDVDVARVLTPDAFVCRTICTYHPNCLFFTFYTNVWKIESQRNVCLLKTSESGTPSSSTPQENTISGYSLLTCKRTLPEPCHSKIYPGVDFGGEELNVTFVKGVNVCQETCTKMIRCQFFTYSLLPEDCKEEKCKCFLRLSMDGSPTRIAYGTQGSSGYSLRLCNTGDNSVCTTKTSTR
Chain of Plasma kallikrein (P03952 391-638 limits assumed): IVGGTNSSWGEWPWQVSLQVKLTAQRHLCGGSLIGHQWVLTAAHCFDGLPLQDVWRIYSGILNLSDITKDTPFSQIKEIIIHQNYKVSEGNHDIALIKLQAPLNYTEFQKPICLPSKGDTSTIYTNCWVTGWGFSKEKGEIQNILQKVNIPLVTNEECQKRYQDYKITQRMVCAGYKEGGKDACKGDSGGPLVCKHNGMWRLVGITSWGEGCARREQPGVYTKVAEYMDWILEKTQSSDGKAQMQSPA

[2] = species on record: Homo sapiens; assay: Selectivity index, ratio of IC50 for human thrombin to IC50 for human plasma kallikrein
[3] = species on record: Homo sapiens; assay: Selectivity index, ratio of IC50 for human Cls to IC50 for human plasma kallikrein
[4] = species on record: Homo sapiens; assay: Selectivity index, ratio of IC50 for human plasmin to IC50 for human plasma kallikrein
[5] = species on record: Homo sapiens; assay: Selectivity index, ratio of IC50 for human APC to IC50 for human plasma kallikrein
[6] = species on record: Homo sapiens; assay: Selectivity index, ratio of IC50 for human tPA to IC50 for human plasma kallikrein
[7] = species on record: Homo sapiens; assay: Selectivity index, ratio of IC50 for human trypsin to IC50 for human plasma kallikrein
[8] = species on record: Homo sapiens; assay: Selectivity index, ratio of IC50 for human FXa to IC50 for human plasma kallikrein
[9] = species on record: Homo sapiens; assay: Selectivity index, ratio of IC50 for human tissue kallikrein to IC50 for human plasma kallikrein
[10] = species on record: Homo sapiens; assay: Selectivity index, ratio of IC50 for human FX2a to IC50 for human plasma kallikrein

IC50 [1]: 1 µM
Compound: NCc1cccc(-n2nc(C(F)(F)F)cc2C(=O)Nc2ccc(C(O)c3ccccc3)cc2F)c1 (stereo unspecified)

Ratio IC50 [2]: > 56800 | Ratio IC50 [3]: > 56800 | Ratio IC50 [4]: 4510 | Ratio IC50 [5]: > 34100 | Ratio IC50 [6]: > 56800 | Ratio IC50 [7]: 12500 | Ratio IC50 [8]: > 56800 | Ratio IC50 [9]: > 34100 | Ratio IC50 [10]: > 56800
Compound: N#Cc1cccc([C@@H](NCC2CC2)c2ccc(F)c(NC(=O)c3cc(C(F)(F)F)nn3-c3cccc(CN)c3)c2)c1 (stereo in doubt)

Compound: NCc1cccc(-n2nc(C(F)(F)F)cc2C(=O)Nc2ccccc2)c1
IC50 [1]: 22.6 µM

Compound: NCc1cccc(-n2nc(C(F)(F)F)cc2C(=O)Nc2ccccc2F)c1
IC50 [1]: 27.3 µM

IC50 [1]: 0.71 µM
Compound: NCc1cccc(-n2nc(C(F)(F)F)cc2C(=O)Nc2cc(C(O)c3ccccc3)ccc2F)c1 (stereo unspecified)

Compound: NCc1cccc(-n2nc(C(F)(F)F)cc2C(=O)Nc2ccc(C3CC3)cc2F)c1
IC50 [1]: 0.577 µM

Compound: NCc1cccc(-n2nc(C(F)(F)F)cc2C(=O)Nc2ccc(-c3ccc(S(N)(=O)=O)cc3)cc2F)c1
IC50 [1]: 0.395 µM

IC50 [1]: 0.651 µM
Compound: NCc1cccc(-n2nc(C(F)(F)F)cc2C(=O)Nc2ccc(C(OCC3CC3)c3ccccc3)cc2F)c1 (stereo unspecified)
